By pEC50 is commonly meant the EC50 on a negative log10 scale, so that one unit is a factor of ten. As usually defined, the solubility is the dissolved amount per volume that the medium holds.

SMILES strings stand for the structures. pEC50: −log10 of the molar value. In brackets after ≈: the same amount, converted by molar mass.

We go through 40 molecules from ChEMBL document CHEMBL1143272, “(S)-N-(5-Chlorothiophene-2-sulfonyl)-beta,beta-diethylalaninol a Notch-1-sparing gamma-secretase inhibitor” (Bioorg Med Chem Lett, 2009).

The nature of data set [1]: Inhibition of gamma-secretase-mediated amyloid beta 40/42 accumulation assessed as beta-CTF cleavage by cell-based sandwich ELISA. (An ELISA detects its analyte on a solid surface through an enzyme-linked reagent.)
Data set [2] in a line: Inhibition of gamma-secretase by Notch-1 cleavage assay.
For data set [3], the target named is Cytochrome P450 2C9 (Homo sapiens, UniProt P11712). As to the kind of experiment: Inhibition of CYP2C9 at 50 uM. The format is ADME.
The test system of data set [4] is Mus musculus. As to the kind of experiment: Reduction in amyloid beta 40 level in Tg2576 mouse brain at 20 mg/kg, sc. The class given is functional. Further details: scale not given: the % may be the effect or the level left; call rule not given here. The settings on record: route subcutaneous.
For data set [5], the target named is Cytochrome P450 3A4 (Homo sapiens, UniProt P08684). The data set is described as follows: Inhibition of CYP3A4 at 50 uM. The class given is ADME.
Data set [6] deals with Cytochrome P450 2D6 (Homo sapiens, UniProt P10635). The data set is described as follows: Inhibition of CYP2D6 at 50 uM. The format is ADME.
Data set [7] deals with Mus musculus. As to the kind of experiment: Reduction in amyloid beta 42 level in Tg2576 mouse brain at 1 mg/kg, sc administered subchronically for 5 days. The class given is functional. Also noted: scale not given: the % may be the effect or the level left. The settings on record: route subcutaneous.
A short description of data set [8]: Solubility of compound at pH 7.4. The format is physicochemical. The settings on record: buffer.
The nature of data set [9]: Selectivity ratio of EC50 for gamma-secretase assessed as Notch-1 cleavage to EC50 for gamma-secretase assessed as beta-CTF cleavage.
In data set [10] the test system is Mus musculus. The data set is described as follows: Reduction in amyloid beta 40 level in Tg2576 mouse brain at 1 mg/kg, sc administered subchronically for 5 days. The class given is functional. Also noted: scale not given: the % may be the effect or the level left. The settings on record: route subcutaneous.

Cytochrome P450 2C9, sequence (P11712 whole entry): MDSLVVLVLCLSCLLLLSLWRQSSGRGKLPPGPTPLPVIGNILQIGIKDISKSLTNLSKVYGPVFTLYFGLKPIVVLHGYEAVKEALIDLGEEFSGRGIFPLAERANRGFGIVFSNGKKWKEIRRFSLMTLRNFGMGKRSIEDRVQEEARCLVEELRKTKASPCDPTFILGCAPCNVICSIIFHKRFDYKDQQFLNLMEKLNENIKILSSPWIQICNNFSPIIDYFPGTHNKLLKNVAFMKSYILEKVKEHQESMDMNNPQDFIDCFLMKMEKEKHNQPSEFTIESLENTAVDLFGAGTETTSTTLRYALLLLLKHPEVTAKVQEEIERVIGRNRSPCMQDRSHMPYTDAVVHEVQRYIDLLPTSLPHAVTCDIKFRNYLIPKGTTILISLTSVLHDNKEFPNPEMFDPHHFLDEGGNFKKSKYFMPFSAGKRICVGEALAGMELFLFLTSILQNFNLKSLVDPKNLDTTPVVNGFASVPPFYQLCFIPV
Cytochrome P450 3A4, sequence (P08684 whole entry): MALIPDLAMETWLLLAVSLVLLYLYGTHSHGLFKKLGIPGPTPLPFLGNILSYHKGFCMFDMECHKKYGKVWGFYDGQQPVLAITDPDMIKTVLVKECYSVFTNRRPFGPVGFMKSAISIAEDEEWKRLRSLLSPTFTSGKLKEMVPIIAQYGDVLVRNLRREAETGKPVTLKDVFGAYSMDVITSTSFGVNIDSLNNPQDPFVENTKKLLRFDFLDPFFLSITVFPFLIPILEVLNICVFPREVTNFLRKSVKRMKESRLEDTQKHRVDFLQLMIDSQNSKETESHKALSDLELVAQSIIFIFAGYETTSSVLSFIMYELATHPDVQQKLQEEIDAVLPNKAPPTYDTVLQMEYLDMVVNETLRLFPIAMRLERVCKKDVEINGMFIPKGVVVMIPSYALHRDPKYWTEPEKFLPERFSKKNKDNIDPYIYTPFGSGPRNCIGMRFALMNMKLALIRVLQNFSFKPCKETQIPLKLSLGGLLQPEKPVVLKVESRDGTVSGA
Cytochrome P450 2D6, sequence (P10635 whole entry): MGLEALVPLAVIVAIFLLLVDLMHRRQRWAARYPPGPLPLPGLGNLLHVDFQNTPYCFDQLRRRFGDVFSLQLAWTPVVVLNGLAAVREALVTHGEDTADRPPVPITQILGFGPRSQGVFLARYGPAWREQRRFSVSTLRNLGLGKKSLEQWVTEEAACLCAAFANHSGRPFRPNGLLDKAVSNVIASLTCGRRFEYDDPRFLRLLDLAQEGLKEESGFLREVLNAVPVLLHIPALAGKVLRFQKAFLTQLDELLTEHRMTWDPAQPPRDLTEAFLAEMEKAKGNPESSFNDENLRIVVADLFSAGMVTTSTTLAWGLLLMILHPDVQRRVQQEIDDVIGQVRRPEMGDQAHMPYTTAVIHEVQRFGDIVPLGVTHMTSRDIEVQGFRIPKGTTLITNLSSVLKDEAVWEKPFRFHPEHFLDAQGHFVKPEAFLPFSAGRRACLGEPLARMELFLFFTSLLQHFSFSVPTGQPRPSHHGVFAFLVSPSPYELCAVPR

In the case of `CC[C@H](C)[C@@H](CO)NS(=O)(=O)c1ccc(Cl)s1`, the pEC50 in [1] is 6.77.
`CC[C@H](C)[C@@H](CO)NS(=O)(=O)c1ccc(Br)cc1`: the pEC50 in data set [1] is 5.66.
The same measure, in the same setting: the result for `CCCC(CCC)[C@@H](CO)NS(=O)(=O)c1ccc(Cl)s1` reads 6.95.
Consider `O=S(=O)(N[C@H](CO)C1CCNCC1)c1ccc(Cl)s1`, for which the pEC50 in [1] is less than 4.52.
Still for that read-out and setting: the same measure for `CC[C@H](C)[C@@H](CO)NS(=O)(=O)c1ccccc1`: 5.33; for `CC[C@H](C)[C@@H](CO)NS(=O)(=O)c1ccc(Cl)o1`: less than 4.52; for `CCC[C@H](CC(C)C)[C@@H](CO)NS(=O)(=O)c1ccc(Cl)s1`: 6.60.
Take `CCCCC[C@H](c1ccccc1)[C@@H](CO)NS(=O)(=O)c1ccc(Cl)s1`: in [1], the pEC50 is less than 4.52.
Same read-out and setting: the same measure for `CC[C@H](CC(C)C)[C@@H](CO)NS(=O)(=O)c1ccc(Cl)s1`: 7.55.
The same measure, in the same setting: the result for `O=S(=O)(N[C@H](CO)C1CCCC1)c1ccc(Cl)s1` reads 6.24; that for `CC(C)(C)[C@@H](CO)NS(=O)(=O)c1ccc(Cl)s1`, 5.12; that for `CC[C@@H](C)[C@H](CO)NS(=O)(=O)c1ccc(Cl)s1`, 5.12.
As for `CCC[C@H](C)[C@@H](CO)NS(=O)(=O)c1ccc(Cl)s1`, the pEC50 in [1] was 6.99.
As for `CC(C)[C@@](C)(CO)NS(=O)(=O)c1ccc(Cl)s1`, in data set [1], the pEC50 was 6.31.
In the case of `CC(C)C[C@@H](C)[C@@H](CO)NS(=O)(=O)c1ccc(Cl)s1`, the pEC50 in data set [1] was 6.94.
For `CC(C)[C@@H](CO)NS(=O)(=O)c1ccc(Cl)s1`, in [1], the pEC50 was 6.09.
On the same count and under the same terms, the same measure for `CCCCCC[C@@H](C(C)C)[C@@H](CO)NS(=O)(=O)c1ccc(Cl)s1`: 7.15; for `CC[C@H](C)[C@@H](CO)NS(=O)(=O)c1cccs1`: 5.15; for `CC[C@H](C)[C@@H](CO)NS(=O)(=O)c1sc(Cl)cc1Br`: less than 4.52.
The same measure, in the same setting: the same measure for `CCCCCC[C@@H](C)[C@@H](CO)NS(=O)(=O)c1ccc(Cl)s1`: 6.67; for `CCC[C@H](c1ccccc1)[C@@H](CO)NS(=O)(=O)c1ccc(Cl)s1`: 5.39.
As to `CCC(CC)[C@@H](CO)NS(=O)(=O)c1ccc(Cl)s1` [GSI-136], the figures for the pEC50 in data set [2] and in [1] were 6.58 and 7.55, respectively. The Activity entry in [3] is “Not Active”; in [4], 55%; in data set [5], “Not Active”; in data set [6], “Not Active”; in [7] it was 15%; in [9] it was 9.5. In addition, the Activity in [10] is given as 25%. Moreover, the solubility in [8] amounted to 37 ng/mL (≈ 0.119 µM).
As to `CC[C@@H](C)[C@@H](CO)NS(=O)(=O)c1ccc(Cl)s1`, in data set [1], the pEC50 was 6.85.
The same measure, in the same setting: the result for `CCCCCC[C@H](CC)[C@@H](CO)NS(=O)(=O)c1ccc(Cl)s1` reads 6.37.
Same read-out and setting: the same measure for `O=S(=O)(N[C@H](CO)C1CCCCC1)c1ccc(Cl)s1`: 6.09; for `CCCCC[C@H](CC(C)C)[C@@H](CO)NS(=O)(=O)c1ccc(Cl)s1`: 4.68; for `CCCCCC[C@@H](CC)[C@@H](CO)NS(=O)(=O)c1ccc(Cl)s1`: 7.37.
With `CCCCCC[C@@H](CCCCC)[C@@H](CO)NS(=O)(=O)c1ccc(Cl)s1`, the pEC50 in data set [1] is less than 4.52.
Same read-out and setting: the same measure for `C[C@@H](c1ccccc1)[C@@H](CO)NS(=O)(=O)c1ccc(Cl)s1`: 5.41; for `CC[C@H](C)[C@@H](CO)NS(=O)(=O)c1ccc(Br)s1`: 6.80.
The same measure, in the same setting: the same measure for `CC[C@H](C)[C@@H](CO)NS(=O)(=O)c1ccc(Cl)cc1`: 5.26.
Same read-out and setting: the same measure for `O=S(=O)(N[C@H](CO)C(c1ccccc1)c1ccccc1)c1ccc(Cl)s1`: less than 4.52; for `CC[C@H](C)[C@@H](CO)NS(=O)(=O)c1ccc(F)s1`: 6.34; for `CC[C@H](C)[C@@H](CO)NS(=O)(=O)c1cc(Cl)c(Cl)s1`: 5.98.
`CCC[C@H](CC)[C@@H](CO)NS(=O)(=O)c1ccc(Cl)s1`: the pEC50 in data set [1] was 7.54.
With `CC(C)C[C@@H](CO)NS(=O)(=O)c1ccc(Cl)s1`, the pEC50 in [1] was less than 4.52.
For the molecule `CCCCC(CCCC)[C@@H](CO)NS(=O)(=O)c1ccc(Cl)s1`, the pEC50 in data set [1] is 5.38.
On the same count and under the same terms, the same measure for `CCCCC[C@H](CC)[C@@H](CO)NS(=O)(=O)c1ccc(Cl)s1`: 7.14; for `CCCCC[C@H](C)[C@@H](CO)NS(=O)(=O)c1ccc(Cl)s1`: 6.58; for `CCCCCC[C@@H](CCC)[C@@H](CO)NS(=O)(=O)c1ccc(Cl)s1`: 6.08.
